Test results from patent publication US6624185B2, “Diarylcycloalkyl derivatives, processes for their preparation and their use as pharmaceuticals” (Aventis Pharma Deutschland GmbH, priority 2001, dated 2003).

Target: T1, human PPARα (Homo sapiens, UniProt Q07869)
T1 construct: expressed in transfected cells; host or cells: HEK (human embryo kidney) cells, stably transfected
T1 sequence (Q07869 1-468): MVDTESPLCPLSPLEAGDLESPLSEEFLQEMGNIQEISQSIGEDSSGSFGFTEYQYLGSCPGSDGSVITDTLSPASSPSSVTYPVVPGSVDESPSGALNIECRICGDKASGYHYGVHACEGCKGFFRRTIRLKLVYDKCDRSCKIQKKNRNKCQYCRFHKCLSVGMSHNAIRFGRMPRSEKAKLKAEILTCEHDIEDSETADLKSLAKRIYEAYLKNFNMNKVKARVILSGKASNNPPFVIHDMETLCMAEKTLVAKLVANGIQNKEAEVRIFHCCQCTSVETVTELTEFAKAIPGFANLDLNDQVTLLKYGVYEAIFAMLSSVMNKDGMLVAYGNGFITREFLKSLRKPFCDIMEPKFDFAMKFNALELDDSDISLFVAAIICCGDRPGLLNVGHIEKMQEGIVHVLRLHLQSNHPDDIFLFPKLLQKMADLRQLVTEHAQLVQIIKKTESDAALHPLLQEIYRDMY
Assay: PPARα reporter cell line assay (stably transfected HEK cells, luciferase readout, three-day test)
Type: cell-based
Conditions: agonist activity in stably transfected HEK PPARα reporter cell line, 24 h incubation, luciferase luminescence
Description: To analyze the effectiveness of substances which bind to human PPARα, activating it in agonistic manner, a stable transfected HEK cell line (HEK=human embryo kidney) designated here as “PPARα reporter cell line” is used.
The activity of PPARα agonists is determined in a three-day test, described below:
The PPARα reporter cell line is cultivated up to 80% confluence in DMEM medium (#41965-039, Life Technologies) with the following additives: 10% cs-FCS (fetal calf serum, #SH-30068.03, Hyclone), antibiotics (0.5 mg/ml of zeozin [#R250-01, Invitrogen], 0.5 mg/ml of G418 [#10131-019, Life Technologies], 1% penicillin streptomycin solution [#15140-031, Life Technologies]) and 2 mM of L-glutamine (#25030-032, Life Technologies). Cultivation is carried out in standard cell culture bottles (#33111, Becton Dickinson) in a cell culture incubator at 37° C. and 5% CO2. The 80% confluent cells are washed once with 30 ml of PBS (#141-090- 094, Life Technologies), treated with 2 ml of trypsin solution (#25300-054, Life Technologies) at 37° C. for 2 min, taken up in 5 ml of the medium described above and counted in a cell counter. After dilution to 500,000 cells/ml, in each case 100,000 cells are sown into each well of a 96-well microtiter plate having a clear plastic bottom (#3610, Corning Costar). The plates are incubated in a cell incubator at 37° C. and 5% CO2 for 24 h.
The PPARα agonists to be tested are dissolved in DMSO at a concentration of 10 mM. This stock solution is diluted in Phenol-Red-free DMEM medium (#21063-029, Life Technologies) to which 5% of cs-FCS (#SH-30068.03, Hyclone), 2 mM of L-glutamine (#25030-032, Life Technologies) and the antibiotics described above (zeozin, G418, penicillin and streptomycin) had been added.
Test substances are usually tested at 11 different concentrations (10 μM; 3.3 μM; 1 μM; 0.33 μM; 0,1 μM; 0.033 μM; 0.01 μM; 0.0033 μM; 0.001 μM; 0.00033 μM and 0.0001 μM). […] From each well, the medium of the PPARα reporter cell line sown on day 1 is completely removed by aspiration, and immediately, the test substances diluted in medium are added to the cells. Dilution and addition of the substances can be carried out using a robot (Beckman Biomek 2000). The end volume of the test substances diluted in medium is 100 μl per well of a 96-well plate. The DMSO concentration in the assay is always below 0.1% v/v to prevent cytotoxic effects of the solvent.
The test plates are incubated in an incubator at 37° C. and 5% CO2 for 24 h.
The PPARα receptor cells treated with the test substances are removed from the incubator and frozen at −20° C. for 1 h to improve cell lysis. After the plates have thawed (thawing at room temperature for at least 30 min), 50 μl of buffer 1 (Luc-Screen kit #LS1000, PE Biosystems Tropix) are pipetted into each well and the plates are then transferred into an apparatus for measuring luminescence, fitted with a pipetting unit (Luminoscan Ascent, LabSystems). The luciferase reaction in the measurement apparatus is started by pipetting 50 μl of buffer 2 (Luc-Screen kit #LS1000, PE Biosystems Tropix) into each well of the 96-well plate. Addition of buffer to the individual wells is carried out in defined and identical time intervals following the instructions of the manufacturer (LabSystems). All samples are measured exactly 16 min after addition of buffer 2. Measurement time is 10 sec per sample.
The crude data of the apparatus for measuring luminescence are exported into a Microsoft Excel file. Dose-activity curves and EC50 values are calculated using the program XL.Fit according to the instructions of the manufacturer (IDBS).

Compound | EC50 [nM]
Cc1cccc(COC[C@H]2CCC[C@@H](OCc3coc(-c4ccc(F)cc4)n3)C2)c1C(=O)O (racemic) [XXV, Rac-cis-2-{3-[2-(4-Fluorophenyl)oxazol4-ylmethoxy]cyclohexylmethoxymethyl}-6-methylbenzoic Acid] | 13
Cc1cccc(-c2nc(COC3CCCC(OCc4cccc(C)c4C(=O)O)C3)c(C)o2)c1 (centres unmarked) [XXXVIII, 2-{3-[2-(3-Methylphenyl)-5-methyloxazol-4-ylmethoxy]cyclohexyloxymethyl}-6-methylbenzoic Acid] | 0.57
COc1cccc(-c2nc(COC3CCCC(OCc4cccc(C)c4C(=O)O)C3)c(C)o2)c1 (centres unmarked) [XXXIV, 2-{3-[2-(3-Methoxyphenyl)-5-methyloxazol4-ylmethoxy]cyclohexyloxymethyl}-6-methylbenzoic Acid] | 0.82
Cc1ccccc1-c1nc(COC2CCCC(OCc3cccc(C)c3C(=O)O)C2)c(C)o1 (centres unmarked) [XLI, 2-{3-[2-(2-Methylphenyl)-5-methyloxazol-4-ylmethoxy]cyclohexyloxymethyl}-6-methylbenzoic Acid] | 0.6
Cc1cccc(CC[C@H]2CCC[C@H](OCc3coc(-c4ccc(F)cc4)n3)C2)c1C(=O)O (racemic) [XXIX, Rac-trans-2-(2-{3-[2-(4-Fluorophenyl)oxazol4-ylmethoxy]cyclohexyl}ethyl)-6-methylbenzoic Acid] | 32
2-{3-[2-(4-Fluorophenyl)oxazola4-ylmethoxy]cyclohexyloxy}-6-methylbenzoic Acid [Example I] | 1

The remaining compounds from weak to strong by EC50, led by results:

EC50 [nM] | Compound
14 | Cc1cccc(CC[C@@H]2CCC[C@H](OCc3coc(-c4ccc(F)cc4)n3)C2)c1C(=O)O (racemic) [XXVIII, Rac-cis-2-(2-{3-[2-(4-Fluorophenyl)oxazol-4-ylmethoxy]cyclohexyl}ethyl)-6-methylbenzoic Acid]
0.97 | Cc1cccc(COC2CCCC(OCc3nc(-c4cccc(Br)c4)oc3C)C2)c1C(=O)O (centres unmarked) [XXXII]
0.93 | Cc1cccc(COC2CCCC(OCc3nc(-c4cccc(C#N)c4)oc3C)C2)c1C(=O)O (centres unmarked) [XLIV, 2-{3-[2-(3-Cyanophenyl)-5-methyloxazol-4-ylmethoxy]cyclohexyloxymethyl}-6-methylbenzoic Acid]
0.62 | Cc1cccc(COC2CCCC(OCc3nc(-c4cccc(Cl)c4)oc3C)C2)c1C(=O)O (centres unmarked) [XXXVI, 2-{3-[2-(3-Chlorophenyl)-5-methyloxazol4-ylmethoxy]cyclohexyloxymethyl}-6-methylbenzoic Acid]
0.58 | COc1ccc(-c2nc(COC3CCCC(OCc4cccc(C)c4C(=O)O)C3)c(C)o2)cc1OC (centres unmarked) [XLIII, 2-{3-[2-(3,4-Dimethoxyphenyl)-5-methyloxazol-4-ylmethoxy]cyclohexyloxymethyl}-6-methylbenzoic Acid]
